US6433023B1, “Compositions having anti-leishmanial activity” (The United States of America as represented by the …, priority 1997, dated 2002)
Like-named read-outs stand apart in the source and are kept apart here.

Test system: Leishmania promastigotes
Experiment: Testing of agents against Leishmania species in parasite culture medium (anti-leishmanial activity)
Format: cell-based
Settings: for IC50: read-out: concentrations effective at the IC50 level; for effectiveness compared with trifluralin: comparison with trifluralin
Text: […]-3,5-dinitrobenzotrifluoride (compound 1), 4-chloro-3-nitrobenzotrifluoride (compound 4), 3-amino-4-chlorobenzotrifluoride (compound 5), 2-bromo-3,5(bis(trifluoromethyl)aniline (compound 6), 4-methoxy-3-nitrobenzotrifluoride (compound 7), and 2-nitro-4-(trifluoromethyl)thiophenol (compound 8) were obtained from Aldrich Chemical Company and were used to without further purification. Trifluralin was obtained from Reidel de Haen and was used without further purification. 4-chloro-3-nitro-5-sulfonylbenzotrifluoride (compound 2) and 4-chloro-3-nitro-5-carboxybenzotrifluoride (compound 3) were obtained from the Walter Reed Army Institute of Research inventory and were used without further purification. All of the agents were initially dissolved in dimethyl sulfoxide and were then diluted at 100 fold in parasitic culture medium before being tested against Leishmania species. […]

[1] = against Leishmania species, agents dissolved in dimethyl sulfoxide, diluted 100 fold in parasitic culture medium

| SMILES | IC50 [1] [µM] | effectiveness compared with trifluralin (against Leishmania species) | IC50 (Leishmania) [µM] |
| --- | --- | --- | --- |
| O=[N+]([O-])c1cc(C(F)(F)F)ccc1S [compound 8, 2-nitro-4-(trifluoromethyl)thiophenol] | 15 | much more effective than trifluralin |  |
| COc1ccc(C(F)(F)F)cc1[N+](=O)[O-] [compound 7, 4-methoxy-3-nitrobenzotrifluoride] | 68 |  |  |
| Nc1cc(C(F)(F)F)ccc1Cl [compound 5, 3-amino-4-chlorobenzotrifluoride] | 77 |  |  |
| O=[N+]([O-])c1cc(C(F)(F)F)cc([N+](=O)[O-])c1Cl [compound 1, 4-chloro-3,5 dinitrobenzotrifluoride] |  | much more effective than trifluralin | 0.89 |
| O=[N+]([O-])c1cc(C(F)(F)F)ccc1Cl [compound 4, 4-chloro-3-nitrobenzotrifluoride] | 35 | much more effective than trifluralin |  |
| O=[N+]([O-])C1=CC(C(F)(F)F)=CC(=S(=O)=O)C1Cl (stereo not drawn) [compound 2, 4-chloro-3-nitro-5-sulfonylbenzotrifluoride] | 6.1 | much more effective than trifluralin |  |
| O=C(O)c1cc(C(F)(F)F)cc([N+](=O)[O-])c1Cl [compound 3, 4-chloro-3-nitro-5-carboxybenzotrifluoride] | 120 |  |  |
| Nc1cc(C(F)(F)F)cc(C(F)(F)F)c1Br [compound 6, 2-bromo-3,5-bis(trifluoromethyl)aniline] | 26 |  |  |
